From patent publication US12582717B2, “Protein based excipient for active pharmaceutical ingredients” (ROUSSELOT B.V., priority 2016, dated 2026)
≈ marks a conversion by molar mass, not a printed value. Where “and” joins values, the source holds several entries; their conditions need not be identical. Equal values may be shown once. Read-outs that look alike come from different tables or passages of the source.

Legend:
[1] = Dissolution of solvent-cast protein films (Example 1); assay type: physicochemical; conditions: film cast from 5% solution in formic acid; 37° C., 0.1N HCl pH 1.5 for 90 minutes, then pH 6.8 up to 330 minutes
Procedure: In the following experiment 5% solutions of various proteins were dissolved in formic acid and solvent-casted into protein films. The proteins were selected from gelatin, BSA (albumin), pea, soy, whey and zein (corn). The protein films were then dissolved at 37° C. in 0.1N HCl with a pH of 1.5 for 90 minutes, after which the pH was adjusted to 6.8 over a time period up to 330 minutes.
The dissolution of the protein films was evaluated using spectrophotometry (absorbance at 280 nm), and plotted as a function of time.

BSA = target: T1, BSA (Bos taurus, UniProt P02769); assay: Tryptophan quenching binding of Flubendazole to BSA; set-up: species or system bovine; conditions: read-out: dissociation constant Kd
T1 construct: from tissue; host or cells: bovine origin (tissue or fluid not specified)
From the text: For the following experiment the binding strength of a protein based excipient to a model API was verified. For the purposes of this experiment, BSA was the protein source, Flubendazole was used as the model API, formic acid served as the solvent and spray drying was chosen as the drying method.

[2] = Equilibrium solubility of Flubendazole in FaSSGF (RP-HPLC); assay type: physicochemical; conditions: FaSSGF (fasted state simulated gastric fluid), pH 1.6, fassgf or other biorelevant, thermodynamic from solid; FaSSGF (1.6 pH), excess Flubendazole rotated up to 72 hours; read-out: equilibrium solubility in FaSSGF medium
Procedure: The dissolution profile and supersaturation state (i.e., the available concentration) was tested using a dissolution media which simulates the juice present in the human stomach before (i.e. fasted state) eating food; namely FaSSGF (1.6 pH) available from Bio-relevant®. A suitable method for determining the concentration is Reversed phase High-performance liquid chromatography (RP-HPLC), which separates molecules based on hydrophobicity causing different retention times as they flow out the column. The further working principles of RP-HPLC are known in the art. The RP-HPLC set-up used an Eclipse Zorbax Agilent 5 μm (4.6×150 mm) column with a flow Rate of 1 ml/min. The injection volume was 20 μl with the mobile phase containing ACN/TFA 0.1% (55:45) and an elution time of Flubendazole about ±1.9 min. The wavelength for measurements was set at 280 nm.
Prior to the experiments, the solubility of Flubendazole in FaSSGF was determined to serve as the baseline reference value. The reference solution was prepared by bringing an excess of Flubendazole in 8 ml FaSSGF solution. This solution was rotated during 72 hours and a 1 ml sample was taken every 24 hours. These reference samples were filtered through a Polytetrafluoroethylene (PTFE) 0.45 μm filter to determine the concentration of Flubendazole through the tested RP-HPLC method. […]

[3] = Solubility statements in the description; assay type: physicochemical

T1 sequence (P02769 25-607): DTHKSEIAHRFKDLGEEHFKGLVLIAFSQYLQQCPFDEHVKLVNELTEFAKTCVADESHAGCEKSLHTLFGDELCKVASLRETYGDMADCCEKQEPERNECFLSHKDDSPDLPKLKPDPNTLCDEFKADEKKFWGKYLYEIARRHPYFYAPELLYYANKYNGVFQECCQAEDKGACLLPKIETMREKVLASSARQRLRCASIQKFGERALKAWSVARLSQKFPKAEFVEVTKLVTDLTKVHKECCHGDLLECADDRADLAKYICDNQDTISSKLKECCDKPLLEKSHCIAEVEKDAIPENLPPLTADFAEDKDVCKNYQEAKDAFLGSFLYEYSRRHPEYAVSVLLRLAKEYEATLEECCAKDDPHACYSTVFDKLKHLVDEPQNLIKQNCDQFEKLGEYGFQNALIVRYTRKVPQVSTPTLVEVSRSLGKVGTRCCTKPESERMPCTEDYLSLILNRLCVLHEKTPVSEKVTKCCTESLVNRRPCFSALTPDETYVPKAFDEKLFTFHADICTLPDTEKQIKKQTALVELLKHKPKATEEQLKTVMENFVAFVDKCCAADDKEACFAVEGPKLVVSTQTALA

For Zein, the “dissolution level of protein film” value [1] was “about 10%”.

In the case of `COC(=O)Nc1nc2cc(C(=O)c3ccc(F)cc3)ccc2[nH]1` [Flubendazole], the Kd (BSA; pH 1.0) is reported as 234 µM and ~234 µM, the Kd (BSA; pH 4.0) is reported as 133 µM and ~133 µM and the Kd (BSA; pH 7.0) is reported as 116 µM and ~116 µM. It also gave a solubility thermodynamic at 72 h [2] of 11.2 µg/mL (≈ 35.7 µM).

For gelatin, the “dissolution level of protein film” value [1] was “(near) complete dissolution”.

In the case of `CCCS(=O)(=O)Nc1ccc(F)c(C(=O)c2c[nH]c3ncc(-c4ccc(Cl)cc4)cc23)c1F` [Vemurafenib], the solubility in methanol [3] is reported as “does not dissolve”.
